In the oligonucleotide strings, read from the 5' end, every base follows the letter of its sugar. An asterisk marks phosphorothioate; unmarked linkages are phosphodiester. Other units and linkages are bracketed, terminal groups are in braces. A string of capitals states the bases alone. e = 2'-O-(2-methoxyethyl) (MOE); [5mC] = 5-methylcytosine; d = 2'-deoxy (DNA)
Legend:
[1] = test system: BJ, B16-F10, T47D, T47Dp53 and HeLa cells; assay: Cell cycle assay (propidium iodide flow cytometry), cell line panel; assay type: cell-based; conditions: for G1 (percentage of cells in phase of the cell cycle) / G2/M (percentage of cells in phase of the cell cycle) / S (percentage of cells in phase of the cell cycle) / SubG1 (percentage of cells in phase of the cell cycle) / aneuploid (percentage of cells): 150 nM oligomeric compound, 4.5 μg/ml LIPOFECTIN, after 72 hours, propidium iodide flow cytometry
[2] = test system: IL-12 mRNA; assay: IL-12 mRNA in LPS-activated primary murine macrophages; assay type: cell-based, mouse; conditions: normalized to LPS-treated cells without oligomeric compound
Protocol: To investigate the role of miRNAs in the immune response, oligomeric compounds of the present invention targeting miRNAs were tested for their effects upon lipopolysaccharide (LPS)-activated primary murine macrophages. Macrophages participate in the immune response, for example, in the recognition and phagocytosis of microorganisms, including bacteria. Interferon-gamma (IFN-gamma) released by helper T cells is one type of signal required for macrophage activation, and LPS can serve as an additional stimulus. LPS is a component of the gram-negative bacterial cell wall and acts as an agonist for toll-like receptor 4 (TLR4), the primary LPS receptor expressed by macrophages. The proinflammatory cytokines interleukin-12 (IL-12) and interleukin-6 (IL-6) are induced by LPS treatment of macrophages, thus the expression of the mRNAs encoding these cytokines was used to evaluate the response of macrophages to LPS following treatment with oligomeric compounds targeting miRNAs.
Macrophages were isolated as follows. Female C57B1/6 mice (Charles River Laboratories, Wilmington, Mass.) were injected intraperitoneally with 1 ml 3% thioglycollate broth (Sigma-Aldrich, St. Louis, Mo.), and peritoneal macrophage cells were isolated by peritoneal lavage 4 days later. The cells were plated in 96-well plates at 40,000 cells/well for one hour in serum-free RPMI adjusted to contain 10 mM HEPES (Invitrogen Life Technologies, Carlsbad, Calif.), allowed to adhere, then non-adherent cells were washed away and the media was replaced with RPMI containing 10 mM HEPES, 10% FBS and penicillin/streptomycin (“complete” RPMI; Invitrogen Life Technologies, Carlsbad, Calif.).
Oligomeric compounds were introduced into the cells using the non-liposomal transfection reagent FuGENE 6 Transfection Reagent (Roche Diagnostics Corp., Indianapolis, Ind.). Oligomeric compound was mixed with FuGENE 6 in 1 mL of serum-free RPMI to achieve a concentration of 10 μL FuGENE per 1000 nM oligomeric compound. The oligomeric compound/FuGENE complex was allowed to form at room temperature for 20 minutes. This mixture was diluted to the desired concentration of oligomeric compound by the addition of the appropriate volume of complete RPMI. The final ratio of FuGENE 6 to oligomeric compound was 1 μL of FuGENE 6 per 100 nM oligomeric compound. A volume of 100 μL of oligomeric compound/FuGENE/RPMI was added to each well of the 96-well plate in which the macrophages were cultured. Each oligomeric compound treatment was repeated in triplicate.
Following oligomeric compound treatment, cells were stimultated with LPS. Cells were cultured in the presence of the transfection complex for approximately 24 to 28 hours at 37° C. and 5% CO2, after which the medium containing the transfection complex was removed from the cells, and complete RPMI containing 100 ng/mL LPS (Sigma-Aldrich Corp., St. Louis, Mo.) was added to the cells for a period of approximately 24 hours. Control samples included (1) cells receiving no oligomeric compound, stimulated with LPS and (2) cells receiving neither oligomeric compound nor LPS treatment.
In another embodiment, following oligomeric compound treatment, cells were first activated by IFN-gamma, to amplify the response to LPS. Cells were cultured in the presence of the transfection complex for approximately 24 hours at 37° C. and 5% CO2, at which point the medium containing the transfection complex was removed from the cells, and complete RPMI containing 100 ng/mL recombinant mouse IFN-gamma (R&D Systems, Minneapolis, Minn.) was added to the cells. After the 4 hour treatment with INF-gamma, cells were treated with 100 ng/mL LPS for approximately 24 hours. Control samples included (1) cells receiving no oligomeric compound, stimulated with LPS and (2) cells receiving neither oligomeric compound nor LPS treatment. […]

[3] = test system: HSL; assay: HSL mRNA expression in adipocytes (real-time PCR); assay type: cell-based, human
[4] = test system: adipocytes; assay: Triglyceride accumulation assay in adipocytes; assay type: cell-based, human
[5] = test system: aP2; assay: aP2 mRNA expression in adipocytes (real-time PCR); assay type: cell-based, human; conditions: for aP2 mRNA: differentiating adipocytes transfected with oligomeric compound, Table 75
[6] = test system: PPARγ; assay: PPARγ mRNA expression in adipocytes (real-time PCR); assay type: cell-based, human
[7] = test system: Glut4; assay: Glut4 mRNA expression in adipocytes (real-time PCR); assay type: cell-based, human
[8] = test system: HeLa cells; assay: Cell cycle assay in HeLa cells; assay type: cell-based, human; conditions: HeLa cells, 150 nM oligomeric compound
[9] = differentiating adipocytes transfected with oligomeric compound, Table 75
[10] = 24 hours, relative to untreated control (UTC = 100)
[11] = 48 hours after treatment, relative to untreated control (UTC=100)
[12] = Table 17, differentiating adipocytes, control = treatment with ISIS 342673

CCGAGCTCTCTTATCAACAG (e[5mC]*e[5mC]*eG*eA*eG*d[5mC]*dT*d[5mC]*dT*d[5mC]*dT*dT*dA*dT*d[5mC]*eA*eA*e[5mC]*eA*eG) [ISIS 183891, 5-10-5 gapmer targeting kinesin-like 1 (Eg5), positive control, reference compound]
cell cycle delay or arrest in all cell lines ([1]; BJ 200 nM, T47D, T47Dp53, HeLa, B16 150 nM, 48 hours): delay or arrest in G2/M phase

341793 (antisense CCAUAAAGUAGGAAACACUACA; all 2'-MOE, all phosphorothioate, methylation of C and T or U not given here) [compound 341793]
IL-12 mRNA expression, −IFN % UTC ([2]; 300 nM oligomeric compound and LPS, no IFN-gamma pretreatment, single experiment): 202 % UTC
IL-12 mRNA expression, +IFN % UTC ([2]; 300 nM oligomeric compound, stimulation with IFN-gamma and LPS, average of 2 experiments): 147 % UTC

TCATAGCCCTGTACAATGCTGCT (anti-miR; chemistry not fully specified) [ISIS 327906, uniform 2′-MOE PS; targets mir-103-1]
percentage of cells in the G2/M phase ([1]; 150 nM, 72 hours (Table 29)): increased percentage of cells in the G2/M phase
percentage of cells with hypodiploid DNA content (subG1) ([1]; 150 nM, 72 hours (Table 29)): increased percentage of cells with hypodiploid DNA content

340348 (antisense CTACCTGCACGAACAGCACTTT; all 2'-MOE, all phosphorothioate, methylation of C not given here) [compound 340348]
HSL mRNA [3, 9]: 57 percentage of untreated control (UTC)
G1 (percentage of cells in phase of the cell cycle) [1]: 53.9%
G2/M (percentage of cells in phase of the cell cycle) [1]: 14.3%
S (percentage of cells in phase of the cell cycle) [1]: 31.8%
SubG1 (percentage of cells in phase of the cell cycle) [1]: 14.1%
aneuploid (percentage of cells) [1]: 12.3%
TG (triglyceride accumulation) [4, 9]: 48 percentage of untreated control (UTC)
aP2 mRNA [5]: 68 percentage of untreated control (UTC)
PPAR gamma mRNA [6, 9]: 78 percentage of untreated control (UTC)
GLUT4 mRNA [7, 9]: 52 percentage of untreated control (UTC)

328364 (eT*e[5mC]*eT*eT*eA*dA*dG*dT*d[5mC]*dA*d[5mC]*dA*dA*dA*dT*e[5mC]*eA*eG*e[5mC]*eA) [compound 328364]
G1 (percentage of cells in phase of the cell cycle) [1]: 61.5%
G2/M (percentage of cells in phase of the cell cycle) [1]: 14.3%
S (percentage of cells in phase of the cell cycle) [1]: 24.2%
SubG1 (percentage of cells in phase of the cell cycle) [1]: 1.9%
aneuploid (percentage of cells) [1]: 15.1%

TACTTTATATAGAACACAAG (chemistry not given here) [ISIS 340365, 5-10-5 gapmer PS; targets mir-92-2]
percentage of aneuploid cells ([1]; 150 nM, 72 hours (Table 29)): higher than average percentages of aneuploid cells

AGCCTATCCTGGATTACTTGAA (anti-miR; chemistry not fully specified) [ISIS 327907, uniform 2′-MOE PS; targets mir-26a]
percentage of aneuploid cells ([1]; 150 nM, 72 hours (Table 29)): higher than average percentages of aneuploid cells
percentage of cells with hypodiploid DNA content (subG1) ([1]; 150 nM, 72 hours (Table 29)): increased percentage of cells with hypodiploid DNA content

340365 (antisense TACTTTATATAGAACACAAG; sugars from the 5' end e5 d10 e5, all phosphorothioate, methylation of C not given here) [compound 340365]
G1 (percentage of cells in phase of the cell cycle) [1]: 55.2%
G2/M (percentage of cells in phase of the cell cycle) [1]: 15.4%
S (percentage of cells in phase of the cell cycle) [1]: 29.4%
SubG1 (percentage of cells in phase of the cell cycle) [1]: 4.3%
aneuploid (percentage of cells) [1]: 18.3%
% cells aneuploid [8, 10]: 84%
% cells in cell cycle phase G1 [8, 10]: 125%
% cells in cell cycle phase G2/M [8, 10]: 114%
% cells in cell cycle phase S [8, 10]: 71%
% cells in cell cycle phase subG1 [8, 10]: 109%
% cells in cell cycle phase: G1 [8, 11]: 99%
% cells in cell cycle phase: G2/M [8, 11]: 109%
% cells in cell cycle phase: S [8, 11]: 94%
% cells in cell cycle phase: aneuploid [8, 11]: 129%
% cells in cell cycle phase: subG1 [8, 11]: 71%

346695 (CACUGGUACAAGGGUUGGGAGA; all 2'-MOE, all phosphorothioate, methylation of C and T or U not given here) [compound 346695]
HSL mRNA [3, 9]: 73 percentage of untreated control (UTC)
TG (triglyceride accumulation) [4, 9]: 69 percentage of untreated control (UTC)
aP2 mRNA [5]: 72 percentage of untreated control (UTC)
PPAR gamma mRNA [6, 9]: 78 percentage of untreated control (UTC)
GLUT4 mRNA [7, 9]: 58 percentage of untreated control (UTC)

328116 (antisense e[5mC]*eA*eA*eA*eA*eT*eT*eG*e[5mC]*eA*eA*eG*e[5mC]*eA*eA*eA*eT*eT*eG*e[5mC]*eA) [compound 328116]
HSL mRNA [3, 12]: 75.8 percentage of control
HSL mRNA [3, 9]: 91 percentage of untreated control (UTC)
TG (triglyceride accumulation) [4, 12]: 82.1 percentage of control
TG (triglyceride accumulation) [4, 9]: 107 percentage of untreated control (UTC)
AP2 mRNA [5, 12]: 87.7 percentage of control
aP2 mRNA [5]: 99 percentage of untreated control (UTC)
PPAR gamma mRNA [6, 12]: 78.4 percentage of control
PPAR gamma mRNA [6, 9]: 95 percentage of untreated control (UTC)
GLUT4 mRNA [7, 12]: 75.2 percentage of control
GLUT4 mRNA [7, 9]: 105 percentage of untreated control (UTC)

328090 (antisense eA*eT*eT*eA*eA*eA*eA*eA*eG*eT*e[5mC]*e[5mC]*eT*e[5mC]*eT*eT*eG*e[5mC]*e[5mC]*e[5mC]*eA) [compound 328090]
HSL mRNA [3, 9]: 81 percentage of untreated control (UTC)
TG (triglyceride accumulation) [4, 9]: 128 percentage of untreated control (UTC)
aP2 mRNA [5]: 68 percentage of untreated control (UTC)
PPAR gamma mRNA [6, 9]: 95 percentage of untreated control (UTC)
GLUT4 mRNA [7, 9]: 86 percentage of untreated control (UTC)

346693 (CCCUCUGGUCAACCAGUCACA; all 2'-MOE, all phosphorothioate, methylation of C and T or U not given here) [compound 346693]
HSL mRNA [3, 9]: 66 percentage of untreated control (UTC)
TG (triglyceride accumulation) [4, 9]: 69 percentage of untreated control (UTC)
aP2 mRNA [5]: 77 percentage of untreated control (UTC)
PPAR gamma mRNA [6, 9]: 81 percentage of untreated control (UTC)
GLUT4 mRNA [7, 9]: 65 percentage of untreated control (UTC)

346913 (AGAAAGGCAGCAGGUCGUAUAG; all 2'-MOE, all phosphorothioate, methylation of C and T or U not given here) [compound 346913]
HSL mRNA [3, 9]: 58 percentage of untreated control (UTC)
TG (triglyceride accumulation) [4, 9]: 63 percentage of untreated control (UTC)
aP2 mRNA [5]: 66 percentage of untreated control (UTC)
PPAR gamma mRNA [6, 9]: 59 percentage of untreated control (UTC)
GLUT4 mRNA [7, 9]: 40 percentage of untreated control (UTC)

344613 (ACACCAAUGCCCUAGGGGAUGCG; anti-miR; all 2'-MOE, all phosphorothioate, methylation of C and T or U not given here) [compound 344613]
HSL mRNA [3, 9]: 46 percentage of untreated control (UTC)
TG (triglyceride accumulation) [4, 9]: 47 percentage of untreated control (UTC)
aP2 mRNA [5]: 55 percentage of untreated control (UTC)
PPAR gamma mRNA [6, 9]: 57 percentage of untreated control (UTC)
GLUT4 mRNA [7, 9]: 38 percentage of untreated control (UTC)

From patent US8178506B2, “Oligomeric compounds and compositions for use in modulation of small non-coding RNAs” (Regulus Therapeutics Inc., priority 2003, dated 2012)
